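Results reflect a 48-hour exposure of cells in 96-well plates to compound at five concentrations. GI50 is the concentration that inhibits growth by half. The concentration for full growth arrest is given as TGI.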
What was measured:
Experiment in all cases: NCI anticancer screen, dose series, 48 h
[1] = test system: MCF7 breast
[2] = test system: HCC-2998 colon
[3] = test system: UACC-257 melanoma
[4] = test system: LOX IMVI melanoma
[5] = test system: SN12C renal
[6] = test system: MALME-3M melanoma
[7] = test system: SR leukemia
[8] = test system: BT-549 breast
[9] = test system: MDA-MB-231 breast
[10] = test system: MOLT-4 leukemia
[11] = test system: SW-620 colon
[12] = test system: M14 melanoma
[13] = test system: SK-OV-3 ovarian
[14] = test system: HL-60(TB) leukemia
[15] = test system: NCI-H460 lung
[16] = test system: EKVX NSCLC

Row | SMILES | TGI [1] | TGI [2] | TGI [3] | TGI [4] | TGI [5] | TGI [6] | TGI [7] | TGI [8] | TGI [9] | TGI [10] | TGI [11] | TGI [12] | TGI [13] | TGI [14] | TGI [15] | TGI [16] | GI50 [1] | GI50 [7] | GI50 [10]
1 | Cc1cn(CC2=NC3CCCCC3N2)c(=O)[nH]c1=O (centres undefined) | > 100 µM | > 100 µM | > 100 µM | > 100 µM | > 100 µM | > 100 µM | > 100 µM | > 100 µM | > 100 µM | > 100 µM | > 100 µM | > 100 µM | > 100 µM | > 100 µM | > 100 µM | > 100 µM | – | – | –
2 | COc1cccc(C2c3cc4c(cc3OC(NNC(N)=O)C2C)OCO4)c1O (centres undefined) | > 100 µM | 35.4 µM | > 100 µM | > 100 µM | > 100 µM | > 67.7 µM | > 19.8 µM | > 100 µM | > 59.8 µM | > 100 µM | > 100 µM | 23.6 µM | > 100 µM | 4 µM | > 26.4 µM | > 50.9 µM | – | – | –
3 | CC(C)C1CC(CO)(CNc2nc(N)nc(Cl)c2/C=N\O)C1 (centres undefined) | 4.27 µM | 17.8 µM | 11.8 µM | 22.5 µM | > 89.5 µM | 16 µM | > 54.2 µM | 28.7 µM | 31.6 µM | 63 µM | 61.2 µM | 26.1 µM | 30.2 µM | 29.1 µM | 3.14 µM | 11.7 µM | – | – | –
4 | CN1C(=O)N/C(=C\c2ccc(S(=O)(=O)N/N=C/c3ccccc3)cc2)C1=O | 68.5 µM | > 100 µM | > 100 µM | > 100 µM | > 100 µM | > 100 µM | > 100 µM | > 100 µM | > 100 µM | 83.7 µM | > 100 µM | > 100 µM | > 100 µM | > 100 µM | 34.4 µM | > 100 µM | – | – | –
5 | COc1ccc(-c2[nH]c(-c3ccc(OC)cc3)c(-c3ccccn3)c2-c2ccccn2)cc1 | > 100 µM | 46.3 µM | > 100 µM | 65.5 µM | > 100 µM | > 100 µM | > 100 µM | 99.9 µM | > 100 µM | > 100 µM | > 100 µM | > 100 µM | > 100 µM | > 100 µM | > 100 µM | > 100 µM | – | – | –
6 | C[C@@H](Oc1ccc(Oc2cnc3ccc(Cl)cc3n2)cc1)C(=O)O | > 100 µM | > 100 µM | > 100 µM | > 100 µM | > 100 µM | > 100 µM | > 100 µM | > 100 µM | > 100 µM | > 100 µM | > 100 µM | > 100 µM | > 100 µM | > 100 µM | > 100 µM | > 100 µM | 18.3 µM | > 24.3 µM | > 23.7 µM

Source: PubChem BioAssay (NCI)
